# According to US20200121645A1, “COMPOSITION FOR PREVENTING OR TREATING EGFR-MUTANT NON-SMALL CELL LUNG CANCER” (THE ASAN FOUNDATION, priority 2018, published 2020):
# Legend:
# EGFR-mutant NSCLCs [1] = test: ROS quantification (DCFDA and MitoSox Red); assay type: cell-based; conditions: 2DG 10 mM or rotenone 5 μM, 24 h
# Description: To determine cytoplasmic ROS, cells were incubated with 2′,7′-dichlorodihydrofluorescein diacetate (DCFDA, 5 μM; Invitrogen, Carlsbad, Calif., USA) for 30 minutes. Excess DCFDA was removed by washing cells twice with PBS at room temperature; labeled cells were trypsinized, rinsed, and resuspended in PBS. The oxidation of DCFDA to the highly fluorescent 2′,7′-dichloro-fluorescein (DCF), which is proportionate to ROS generation, was analyzed by flow cytometry. To analyze mitochondrial ROS, the cells were then incubated with 5 μM MitoSOX™ reagent (Thermo Scientific, Waltham, Mass., USA) for 10 minutes at 37° C. and trypsinized, washed with PBS, and then resuspended in 200 μL of PBS. Stained cells were then quantified and analyzed on a flow cytometer (BeckmanCoulter, Brea, Calif., USA). Excitation wavelength was 510 nm, and emission wavelength was 580 nm.
# [2] = test system: EGFR-mutant NSCLCs (PC9 and H1975); test: Apoptotic cell death by Annexin V/PI staining and flow cytometry; assay type: cell-based; conditions: for apoptotic cell death: EGFR-mutant NSCLCs, 24 h treatment; for rescue from glucose deprivation-induced apoptosis: glucose-free medium, 24 h, SP600125 15 μM
# Description: (§1) Apoptotic cell death was detected using an Annexin-V/FITC assay. Cells were harvested by trypsinization, washed with PBS, and resuspended in Annexin-V binding buffer (10 mM HEPES, pH 7.4, 140 mM NaCl, 2.5 mM CaCl2) containing Annexin-V FITC and propidium iodide. Stained cells were quantified and analyzed on a flow cytometer (BeckmanCoulter, Brea, Calif., USA).
# [3] = test system: EGFR-WT NSCLCs (A549 and H1299); test: as above; assay type: cell-based; conditions: 24 h treatment
# Description: as §1
# [4] = test system: pentose phosphate pathway; test: NADP+/NADPH ratios; assay type: cell-based; conditions: data not shown
# [5] = test system: PC-9/GR and PC-9/ER cells; test: Apoptotic cell death by Annexin V/PI staining and flow cytometry in EGFR-TKI-resistant cells; assay type: cell-based; conditions: PC-9/GR and PC-9/ER cells (T790M), 24 h
# Description: as §1
# PC9 cells [6] = test: TCA metabolite pools by LC-MS/MS; assay type: cell-based; conditions: 2DG 10 mM or BPTES 10 μM
# Description: Cells were grown to ˜60% confluence in growth media (RPMI1640, 10% FBS) on 10-cm dishes. After 24 hours, cells were harvested using 1.4 mL of cold methanol/H2O (80/20, v/v) after sequential PBS and H2O washes, and lysed; 100 μL of 5 μM internal standard was added. Metabolites were liquid-liquid extracted from the aqueous phase after adding chloroform. The aqueous phase was dried via vacuum centrifugation, and the sample was reconstituted with 50 μL of 50% methanol prior to LC/MS-MS analysis. The LC/MS-MS system was equipped with an Agilent 1290 HPLC (Agilent Technologies, Santa Clara, Calif., USA), Qtrap 5500 (ABSciex, Concord, Ontario, Canada), and reverse phase column (Synergi fusion RP 50×2 mm). A 3 μL volume was injected into the LC/MS-MS system and ionized with a turbo spray ionization source. Multiple reaction monitoring was used in negative ion mode, and the extracted ion chromatogram (EIC), corresponding to the specific transition for each metabolite was used for quantitation. The area under the curve of each EIC was normalized to that of the internal standard EIC. The peak area ratio of each metabolite to the internal standard was normalized using protein amount in a sample, and then was used for relative comparison.
# EGFR = EGFR transcriptional level; assay type: cell-based
# Description: Total RNA was extracted using TRIzol (Invitrogen, Carlsbad, Calif., USA). cDNA was synthesized from 2 μg of total RNA, using oligo-dT and MMLV HP reverse transcriptase (Epicentre, Madison, Wis., USA) according to the manufacturer's instruction. qRT-PCR was performed on an AriaMax Real-Time PCR instrument (Agilent Technologies, Santa Clara, Calif., USA) using the SYBR detection protocol. cDNA was calculated by the comparative Ct method, with 18S ribosomal RNA as a control. PCR reactions were performed in triplicates.
# [7] = test system: IGF1R and MET in EGFR-mutant NSCLCs; test: Western blot of other receptor tyrosine kinases; assay type: cell-based; conditions: 2DG 10 mM, 24 h
# Description: (§2) Cells were lysed in RIPA lysis buffer containing protease inhibitor cocktail (Thermo Scientific, Waltham, Mass., USA); lysate concentrations were assayed using a BCA assay (Thermo Scientific). Equal amounts of lysates were mixed with Laemmli loading dye and boiled for 10 minutes. Lysates were subjected to SDS-PAGE, and separated proteins were transferred to PVDF membranes (EMD Millipore, Billerica, Mass., USA). Membranes were blocked in Tris-buffered saline (TBS) containing 5% nonfat dry milk and 0.1% Tween 20 (TBS-T) prior to overnight incubation with primary antibody at 4° C. After washing with TBS-T, blots were exposed to appropriate horseradish peroxidase-conjugated secondary antibodies for 1 hour. Proteins-antibody complexes were visualized on Kodak X-ray film using an enhanced chemiluminescence (ECL) detection system (Thermo Scientific, Waltham, Mass., USA).
# [8] = test system: EGFR in EGFR-mutant NSCLCs; test: Western blot of EGFR levels, EGFR signaling and PARP/caspase-3 cleavage; assay type: cell-based; conditions: for EGFR levels / EGFR signaling (AKT and ERK phosphorylation) / PARP and caspase-3 cleavage (apoptosis markers): EGFR-mutant NSCLCs, immunoblot
# Description: as §2
# [9] = test system: PC-9/GR and PC-9/ER cells; test: Western blot of JNK, EGFR signaling and apoptosis markers in EGFR-TKI-resistant cells; assay type: cell-based; conditions: 24 h
# Description: as §2
# [10] = test system: PC9 and H1975 tumor cell xenografts; test: Xenograft studies, tumor volume; assay type: in vivo, SCID mice; conditions: 2DG 500 mg/kg, intraperitoneal, 5 days a week for 2 weeks; compared with EGFR-WT (A549) xenografts
# Description: Female severe combined immunodeficiency (SCID) mice were purchased from Charles River Laboratories. All experimental procedures were approved by the Institutional Animal Care and Use Committee of Asan Institute for Life Sciences (protocol 2015-14-241). For each animal, 2×10^6 cells mixed with Matrigel (BD Biosciences) were injected into the flank. Five mice per group were treated when the tumor volumes reached 50 to 100 mm^3 with anisomycin (5 mg/kg, intratumoral, 5 days a week) or 2-deoxy-D-glucose (2DG) 500 mg/kg, intraperitoneal, 5 days a week) for 2 weeks. The length (L) and width (W) of each tumor were measured using calipers, and the tumor volume (TV) was calculated as TV=(L×W^2)/2. To evaluate EGFR-related signaling in xenograft tumors, tumors were harvested after 3 days of drug treatment, lysed, and analyzed with Western blotting.
# EGFR-mutant NSCLCs [11] = test: Autophagy: LC3-II immunoblot and GFP-LC3 puncta; assay type: cell-based; conditions: 2DG 10 mM or anisomycin 5 μM, 24 h
# Description: as §2
# [12] = test system: JNK in EGFR-mutant NSCLCs; test: Western blot for JNK and P-JNK; assay type: cell-based; conditions: for JNK activation (P-JNK): EGFR-mutant NSCLCs, immunoblot
# Description: as §2
# PC9 cells [13] = test: Quantitation of intracellular ATP; assay type: cell-based; conditions: MPYR or AKG 7 mM, 24 h
# Description: Intracellular ATP concentrations were measured using an ATP Colorimetric/Fluorometric Assay Kit (Biovision Incorporated, Milpitas, Calif., USA) according to the manufacturer's instructions. Briefly, cells were lysed in […] of ATP assay buffer; 50 μL of supernatants were collected and added to a 96-well plate. To each well, 50 μL of ATP assay buffer containing ATP probe, ATP converter, and developer were added. Absorbance was measured at 570 nm.
smiles,measurement,setting,value
"O=CC[C@@H](O)[C@H](O)[C@H](O)CO [2DG, 2-deoxy-D-glucose]",cytoplasmic and mitochondrial ROS levels,EGFR-mutant NSCLCs [1],significant increases
same,apoptotic cell death,[2],promoted apoptosis
same,apoptotic cell death,[3],only in EGFR-mutant NSCLCs
same,NADP+/NADPH ratios,[4],no significant effect
same,apoptosis,[5],significant induction of apoptosis
same,levels of TCA cycle intermediates,PC9 cells [6],significantly decreased
same,EGFR transcriptional level,EGFR,no significant effect
same,IGF1R phosphorylation,[7],significantly decreased
same,MET phosphorylation,[7],marginally decreased
same,total form of IGF1R and MET,[7],did not change
same,EGFR levels,[8],robust reduction of EGFR levels
same,EGFR signaling (AKT and ERK phosphorylation),[8],inhibition of EGFR signaling
same,PARP and caspase-3 cleavage (apoptosis markers),[8],leading to apoptosis
same,EGFR levels upon ATG7 knockdown,"[8]; cells expressing ATG7 shRNAs, 2DG 10 mM or anisomycin 5 μM, 24 h",did not reduce EGFR levels
same,JNK activation,[9]; 2DG 10 mM,markedly activated JNK
same,"EGFR level, AKT and ERK phosphorylation, PARP and caspase-3 cleavage",[9],"EGFR level reduction, AKT and ERK phosphorylation inhibition, and PARP and caspase-3 cleavage"
same,tumor growth of xenografts,[10],robustly diminished the growth
same,LC3-II levels,EGFR-mutant NSCLCs [11],significant increase in LC3-II levels
same,number of GFP-LC3 puncta,EGFR-mutant NSCLCs [11]; PC9 cells expressing GFP-LC3,profoundly increased
O=C(Cc1ccccc1)Nc1nnc(CCSCCc2nnc(NC(=O)Cc3ccccc3)s2)s1 [BPTES],levels of TCA cycle intermediates,PC9 cells [6],no significant inhibitory effect
same,EGFR signaling (AKT and ERK phosphorylation),[8],had no effect on EGFR signaling
"OO [H2O2, hydrogen peroxide]",apoptotic cell death,[2],activated apoptosis in EGFR-mutant NSCLCs in a dose-dependent manner
same,EGFR levels,[8],markedly reduced the EGFR levels
same,EGFR signaling (AKT and ERK phosphorylation),[8],inhibited the AKT and ERK phosphorylation
same,PARP and caspase-3 cleavage (apoptosis markers),[8],cleaved the PARP and caspase-3 in a dose-dependent manner
same,JNK activation (P-JNK),[12],activated JNK in a dose-dependent manner
"CC(=O)N[C@@H](CS)C(=O)O [NAC, N-acetyl-L-cysteine]",rescue from 2DG treatment-induced apoptotic cell death,"[2]; 2DG 10 mM, MPYR or AKG 7 mM, NAC 4 mM",significantly rescued cell death
same,rescue from anisomycin-induced cell death,[2]; anisomycin 24 h in absence or presence of NAC (FIG. 10a),did not rescue
same,rescue from glucose deprivation-induced apoptosis,"[2]; MPYR or AKG 7 mM, NAC 4 mM",significantly rescued cell death
same,rescue from rotenone-mediated apoptosis,"[2]; rotenone 5 μM, methyl-pyruvate or NAC 4 mM",significantly rescued cell death
same,"EGFR levels and AKT and ERK phosphorylation following glucose deprivation, 2DG, or rotenone treatment","[8]; NAC 4 mM, 24 h",significant recovery
same,"PARP and caspase-3 cleavage upon glucose deprivation, 2DG, or rotenone treatment","[8]; NAC 4 mM, 24 h",significantly inhibited
same,recovery of anisomycin-decreased EGFR signaling or EGFR levels,[8]; anisomycin with NAC (FIG. 10b),could not recover
same,"JNK activation induced by glucose deprivation, 2DG, or rotenone treatment","[12]; NAC 4 mM, 24 h",completely inhibited
same,inhibition of anisomycin-induced JNK activation,[12]; anisomycin with NAC (FIG. 10c),could not
CCN(CC)CCCC(C)Nc1ccnc2cc(Cl)ccc12 (centres unmarked) [chloroquine],"PARP and caspase-3 cleavage upon glucose deprivation, 2DG, or anisomycin treatment","[8]; chloroquine 10 μM, 24 h",robustly inhibited
same,"reduction in EGFR levels caused by glucose deprivation, 2DG, or anisomycin treatment","[8]; in the presence of chloroquine, 24 h",dramatically inhibited
C=C(C)[C@H]1Cc2c(ccc3c2O[C@@H]2COc4cc(OC)c(OC)cc4[C@@H]2C3=O)O1 [rotenone],cytoplasmic and mitochondrial ROS levels,EGFR-mutant NSCLCs [1],significant increases
same,apoptotic cell death,[2],rotenone-mediated apoptosis
same,EGFR levels,[8],robustly decreased EGFR levels in both dose- and time-dependent manners
same,JNK activation (P-JNK),[12],significantly induced JNK activation in both dose- and time-dependent manners
OC[C@H]1O[C@H](O[C@H]2O[C@H](CO)[C@@H](O)[C@H](O)[C@H]2O)[C@H](O)[C@@H](O)[C@@H]1O [trehalose],EGFR levels,[8],significantly induced EGFR degradation in a dose-dependent manner
O=C(O)CCC(=O)C(=O)O [α-ketoglutarate],rescue from glucose deprivation-induced apoptosis,"[2]; MPYR or AKG 7 mM, NAC 4 mM",rescue EGFR-mutant NSCLCs from glucose deprivation-induced apoptosis
same,recovery of ATP levels reduced by glucose deprivation,PC9 cells [13],significant recovery of ATP levels
